Reference: ChEMBL document CHEMBL5365447, “Pronucleotides of 2',3'-Dideoxy-2',3'-Didehydrothymidine as Potent Anti-HIV Compounds” (J Med Chem, 2023)
Calls of active or inactive are those of the source. The calls are words filed in the database; no cut-off is given here.

How the values were obtained:
[1] = Retention time of the compound by HPLC analysis; format: physicochemical
[2] = Chemical stability of the compound in phosphate buffer saline assessed as half life at pH 7.3 by HPLC analysis; format: physicochemical; details: phosphate buffered saline
[3] = Prodrug conversion in pH 7.3 phosphate buffer assessed as metabolite formation by measuring half life in presence of pig liver esterase by HPLC analysis; format: ADME; details: isolated protein
[4] = Prodrug conversion in human CEM/0 cell extract assessed as metabolite formation by measuring half life by HPLC analysis; format: ADME; details: ccrf-cem
[5] = tested on: Human immunodeficiency virus 1; experiment: Antiviral activity against HIV-1 HE infected in wild-type human CEM/0 cells assessed as inhibition of virus-induced cytopathic effect incubated for 4 to 5 days by light microscopic analysis; format: functional, organism-based; details: Human immunodeficiency virus 1, HE, CCRF-CEM
[6] = tested on: Human immunodeficiency virus 2; experiment: Antiviral activity against HIV-2 ROD infected in wild-type human CEM/0 cells assessed as inhibition of virus-induced cytopathic effect incubated for 4 to 5 days by light microscopic analysis; format: functional, organism-based; details: Human immunodeficiency virus 2, ROD, CCRF-CEM
[7] = tested on: Human immunodeficiency virus 2; experiment: Antiviral activity against HIV-2 ROD infected in thymidine kinase-deficient human CEM cells assessed as inhibition of virus-induced cytopathic effect incubated for 4 to 5 days by light microscopic analysis; format: functional, organism-based; details: Human immunodeficiency virus 2, ROD, CCRF-CEM
[8] = Cytotoxicity against human CEM cells assessed as reduction in cell viability incubated for 4 to 5 days by light microscopic analysis; format: toxicity, cell-based; details: CEM cells (CCRF-CEM), time 4-5 day
[9] = Selectivity index, ratio of CC50 for human CEM cells to EC50 for HIV-2 ROD infected in thymidine kinase-deficient human CEM cells; format: toxicity; details: read-out: Ratio CC50/EC50
[10] = Prodrug conversion in pH 7.3 phosphate buffer assessed as ((2S,5R)-5-(5-methyl-2,4-dioxo-3,4-dihydropyrimidin-1(2H)-yl)-2,5-dihydrofuran-2-yl)methyl tri-hydrogen diphosphate formation by measuring half life in presence of pig liver esterase by HPLC analysis; format: ADME
[11] = Prodrug conversion in human CEM/0 cell extract assessed as ((2S,5R)-5-(5-methyl-2,4-dioxo-3,4-dihydropyrimidin-1(2H)-yl)-2,5-dihydrofuran-2-yl)methyl tri-hydrogen diphosphate formation by HPLC analysis; format: ADME; details: ccrf-cem
[12] = tested on: Human immunodeficiency virus; experiment: Substrate activity at HIV reverse transcriptase measured after 4 hrs by electrophoresis based primer extension assay
[13] = target: T1, DNA polymerase alpha catalytic subunit (Homo sapiens) (UniProt P09884); experiment: Substrate activity at human DNA polymerase alpha measured after 4 hrs by electrophoresis based primer extension assay
T1 sequence (whole entry): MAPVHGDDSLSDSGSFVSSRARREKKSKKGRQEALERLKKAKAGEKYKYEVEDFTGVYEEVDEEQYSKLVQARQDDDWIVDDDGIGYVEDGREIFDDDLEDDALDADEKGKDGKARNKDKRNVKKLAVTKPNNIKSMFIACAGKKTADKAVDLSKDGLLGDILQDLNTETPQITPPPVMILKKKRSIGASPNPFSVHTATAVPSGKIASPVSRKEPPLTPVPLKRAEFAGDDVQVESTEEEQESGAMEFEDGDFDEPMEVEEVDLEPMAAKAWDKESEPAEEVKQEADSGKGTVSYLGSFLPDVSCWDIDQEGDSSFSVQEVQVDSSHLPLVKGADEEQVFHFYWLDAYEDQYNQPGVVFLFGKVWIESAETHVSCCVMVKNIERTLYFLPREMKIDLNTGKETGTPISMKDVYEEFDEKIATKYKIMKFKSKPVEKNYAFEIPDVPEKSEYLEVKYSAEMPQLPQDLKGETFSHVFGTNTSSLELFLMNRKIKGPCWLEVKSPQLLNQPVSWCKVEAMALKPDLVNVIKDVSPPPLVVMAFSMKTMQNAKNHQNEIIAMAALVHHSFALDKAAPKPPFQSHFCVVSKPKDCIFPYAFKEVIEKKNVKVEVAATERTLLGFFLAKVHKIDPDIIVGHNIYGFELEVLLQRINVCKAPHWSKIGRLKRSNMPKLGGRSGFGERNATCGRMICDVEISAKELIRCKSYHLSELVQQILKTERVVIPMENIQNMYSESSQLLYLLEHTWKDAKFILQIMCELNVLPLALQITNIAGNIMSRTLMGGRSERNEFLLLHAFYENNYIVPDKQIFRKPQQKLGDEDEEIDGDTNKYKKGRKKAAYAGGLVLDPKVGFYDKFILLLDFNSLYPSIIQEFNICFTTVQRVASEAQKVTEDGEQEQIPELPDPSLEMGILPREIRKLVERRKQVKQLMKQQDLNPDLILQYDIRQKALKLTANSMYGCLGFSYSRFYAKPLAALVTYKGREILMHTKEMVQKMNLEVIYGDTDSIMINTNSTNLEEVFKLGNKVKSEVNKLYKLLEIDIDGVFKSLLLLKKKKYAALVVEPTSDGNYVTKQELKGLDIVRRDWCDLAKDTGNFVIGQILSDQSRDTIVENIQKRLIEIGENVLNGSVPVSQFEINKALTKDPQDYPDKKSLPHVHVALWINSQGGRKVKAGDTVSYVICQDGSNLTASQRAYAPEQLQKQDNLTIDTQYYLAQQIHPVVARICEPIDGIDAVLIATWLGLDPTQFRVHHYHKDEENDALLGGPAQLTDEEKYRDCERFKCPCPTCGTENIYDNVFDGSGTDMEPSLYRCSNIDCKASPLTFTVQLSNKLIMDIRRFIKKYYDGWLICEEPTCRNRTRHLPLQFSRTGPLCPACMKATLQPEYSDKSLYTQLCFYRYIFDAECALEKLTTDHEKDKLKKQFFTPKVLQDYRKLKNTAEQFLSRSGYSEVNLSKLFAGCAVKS

[14] = target: DNA polymerase beta (Homo sapiens) (UniProt P06746); experiment: Substrate activity at human DNA polymerase beta measured after 4 hrs by electrophoresis based primer extension assay
[15] = target: T2, DNA polymerase subunit gamma-1 (Homo sapiens) (UniProt P54098); experiment: Substrate activity at human DNA polymerase gamma measured after 4 hrs by electrophoresis based primer extension assay
T2 sequence (whole entry): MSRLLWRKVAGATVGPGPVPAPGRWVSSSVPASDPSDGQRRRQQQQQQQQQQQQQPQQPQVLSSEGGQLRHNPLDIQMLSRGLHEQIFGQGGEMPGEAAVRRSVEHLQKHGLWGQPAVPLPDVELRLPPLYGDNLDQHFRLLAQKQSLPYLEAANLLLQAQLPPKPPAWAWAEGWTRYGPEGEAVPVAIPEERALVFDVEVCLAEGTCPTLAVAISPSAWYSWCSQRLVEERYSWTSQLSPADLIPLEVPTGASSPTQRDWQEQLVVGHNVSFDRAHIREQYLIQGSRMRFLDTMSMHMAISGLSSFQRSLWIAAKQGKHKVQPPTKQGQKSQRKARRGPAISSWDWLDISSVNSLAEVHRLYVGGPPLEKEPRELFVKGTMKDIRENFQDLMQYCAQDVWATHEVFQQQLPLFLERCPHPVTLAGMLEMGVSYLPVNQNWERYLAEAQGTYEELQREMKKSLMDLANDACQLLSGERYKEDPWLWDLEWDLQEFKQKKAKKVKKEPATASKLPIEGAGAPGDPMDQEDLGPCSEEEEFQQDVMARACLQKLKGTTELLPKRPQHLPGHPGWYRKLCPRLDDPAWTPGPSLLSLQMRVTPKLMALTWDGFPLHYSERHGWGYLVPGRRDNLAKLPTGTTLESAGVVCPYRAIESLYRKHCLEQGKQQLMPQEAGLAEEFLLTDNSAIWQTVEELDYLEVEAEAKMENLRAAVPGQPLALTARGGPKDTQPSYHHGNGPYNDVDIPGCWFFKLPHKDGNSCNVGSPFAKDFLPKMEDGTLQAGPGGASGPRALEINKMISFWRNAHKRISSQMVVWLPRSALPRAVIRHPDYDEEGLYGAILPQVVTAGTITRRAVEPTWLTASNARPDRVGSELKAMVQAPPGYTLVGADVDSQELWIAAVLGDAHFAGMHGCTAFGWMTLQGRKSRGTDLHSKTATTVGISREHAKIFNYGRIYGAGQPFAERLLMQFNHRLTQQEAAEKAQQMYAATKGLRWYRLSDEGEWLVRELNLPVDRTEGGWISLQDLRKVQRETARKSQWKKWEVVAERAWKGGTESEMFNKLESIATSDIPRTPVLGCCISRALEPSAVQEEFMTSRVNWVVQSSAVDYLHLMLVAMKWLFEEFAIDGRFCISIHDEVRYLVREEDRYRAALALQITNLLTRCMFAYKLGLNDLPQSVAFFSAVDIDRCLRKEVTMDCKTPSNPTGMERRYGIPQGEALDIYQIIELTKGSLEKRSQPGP

Structure (SMILES)	Retention_time [1]	half-life [2]	t1/2 [3]	t1/2 [4]	EC50 [5]	EC50 [6]	EC50 [7]	CC50 [8]	selectivity ratio [9]	Drug metabolism [3]	Drug metabolism [4]	t1/2 [10]	Drug metabolism [11]	Activity [12]	Activity [13]	Activity [14]	Activity [15]
CCCCCCCCCCCCCCCCCCOP(=O)(OCc1ccc(OC(=O)CCCC)cc1)OP(=O)(O)OC[C@@H]1C=C[C@H](n2cc(C)c(=O)[nH]c2=O)O1.N (stereo partly drawn)	20.3 min	16.9 days	0.18 h	> 7 h	59 nM	36 nM	16 nM	50600 nM	3170								
CCCCC(=O)Oc1ccc(COP(=O)(OC)OP(=O)(O)OC[C@@H]2C=C[C@H](n3cc(C)c(=O)[nH]c3=O)O2)cc1.N (stereo partly drawn)	11.3 min	3.5 days			430 nM	410 nM	8950 nM	> 100000 nM	> 11	Metabolite_Notdetected	Metabolite_Notdetected						
CCCCCCCCCCCCCCCCCCP(=O)(OCc1ccc(OC(=O)CCCC)cc1)OP(=O)(O)OC[C@@H]1C=C[C@H](n2cc(C)c(=O)[nH]c2=O)O1.N (stereo partly drawn)	20 min	> 83.3 days	0.25 h	> 8 h	44 nM	42 nM	2 nM	14600 nM	7290								
CCCCCCCCCCCCCCCCCCOP(=O)(O)OP(=O)(O)OC[C@@H]1C=C[C@H](n2cc(C)c(=O)[nH]c2=O)O1.N.N	15.1 min	> 125 days		> 13 h	330 nM	68 nM	1 nM	> 100000 nM	> 62500			> 150 h	Metabolite_Notdetected	inactive	inactive	inactive	inactive
CCCCCCCCCCCCP(=O)(OCc1ccc(OC(=O)CCCCCCCCCCC)cc1)OP(=O)(O)OC[C@@H]1C=C[C@H](n2cc(C)c(=O)[nH]c2=O)O1.N (stereo partly drawn)	20.6 min	> 83.3 days	0.27 h	3 h	130 nM	60 nM	10 nM	41100 nM	4110								
CCCCCCCCCCCCP(=O)(O)OP(=O)(O)OC[C@@H]1C=C[C@H](n2cc(C)c(=O)[nH]c2=O)O1.N.N	12.3 min	> 83.3 days		> 30 h	870 nM	200 nM	12600 nM	> 100000 nM	> 8			> 150 h	Metabolite_Notdetected				
CCCCOP(=O)(O)OP(=O)(O)OC[C@@H]1C=C[C@H](n2cc(C)c(=O)[nH]c2=O)O1.N.N	9.4 min	> 125 days		> 30 h	720 nM	420 nM	43200 nM	> 100000 nM	> 2			> 150 h	Metabolite_Notdetected		inactive	inactive	inactive
Cc1cn([C@H]2C=C[C@@H](CO)O2)c(=O)[nH]c1=O [STAVUDINE]							> 50000 nM	> 50000 nM	> 1								
COP(=O)(O)OP(=O)(O)OC[C@@H]1C=C[C@H](n2cc(C)c(=O)[nH]c2=O)O1.N.N	8.9 min	> 125 days			520 nM	180 nM	40400 nM	> 100000 nM	> 2		Metabolite_Notdetected	> 150 h	Metabolite_Notdetected		inactive	inactive	inactive
Cc1cn([C@H]2C=C[C@@H](COP(=O)(O)OP(=O)(O)O)O2)c(=O)[nH]c1=O														Active			
CCCCCCCCCCCCOP(=O)(O)OP(=O)(O)OC[C@@H]1C=C[C@H](n2cc(C)c(=O)[nH]c2=O)O1.N.N	12.6 min	> 125 days		> 30 h	560 nM	190 nM	11000 nM	> 100000 nM	> 9			> 150 h	Metabolite_Notdetected		inactive	inactive	inactive
